{"source": "patent US20170105981A1", "about": "“METHODS FOR STABILIZING HYPOXIA INDUCIBLE FACTOR-2 ALPHA AS A METHOD FOR TREATING CANCER” (The Ohio State Innovation Foundation, priority 2011, published 2017)", "key": {"Pmel17 mRNA": {"tested_on": "Pmel17 mRNA", "test": "Evaluation of lung metastases by Pmel17 mRNA in lungs of B16F10 tumor-bearing mice", "type": "in vivo", "conditions": "stabilizer I.P., GM-CSF I.T., vs vehicle control; FIG. 5", "method": "Lung metastases were evaluated by detection of mRNA for melanocyte-specific proteins within the lungs of tumor-bearing mice. B16F10 tumor-bearing mice were treated with GM-CSF and/or the disclosed HIF-2α stabilizer, as depicted in FIG. 3. At the time of sacrifice, lungs were excised and flash-frozen in liquid nitrogen. Frozen lungs were homogenized in liquid nitrogen and the pulverized material was dissolved in TRIzol™ reagent (Invitrogen). […] The melanocyte-specific Pmel17 was detected by nested PCR using a modification of the protocol described by Tsukamoto et al. For the initial reaction, 30 cycles of PCR were carried out (95° C. for 1 minute, 58° C. for 1 min, 72° C. for 1 min) in a 20 μL reaction volume containing 2 μL of cDNA. […] Data were analyzed according to the comparative threshold method and normalized against the GAPDH internal control transcript. Results are semi-quantitative and represent the fold difference in transcript levels in vehicle-treated control mice as compared with levels in mice treated with the disclosed HIF-2α stabilizer and/or GM-CSF.\nLung metastases were evaluated by detection of mRNA for melanocyte-specific proteins within the lungs of tumor-bearing mice. […] Data were analyzed according to the comparative threshold method and normalized against the β-actin internal control transcript. […]"}, "sVEGFR-1": {"tested_on": "sVEGFR-1", "test": "sVEGFR-1 production by human peripheral blood monocytes (ELISA, real-time PCR)", "type": "cell-based", "conditions": "monocytes with 100 ng/mL GM-CSF plus 10 μM compound vs GM-CSF alone, FIG. 11B", "method": "Human peripheral blood mononuclear cells (PBMCs) were isolated from fresh peripheral blood leukocyte source packs (American Red Cross, Columbus Ohio) by density gradient centrifugation over Lymphocyte Separation Medium (Cellgro). Monocytes were purified from total PBMCs by layering over FBS. Monocytes were cultured in endotoxin-free RPMI-1640 supplemented with 1% fetal bovine serum (FBS), 0.1% human serum albumin (HSA), and 10 μg/mL of the endotoxin inhibitor polymyxin B. In some experiments, freshly isolated monocytes were differentiated into macrophages by three-day culture in media containing 10% FBS, 1% PSA (penicillin G sodium, streptomycin sulfate, and amphotericin B), and 20 ng/mL M-CSF. Macrophages were serum-starved for 2 hours prior to stimulation. Monocytes or monocyte-derived macrophages were treated for 24 hours with 10 ng/mL GM-CSF, 10 μM disclosed HIF-2α stabilizer, or an equivalent volume of the vehicle controls (PBS or DMSO, respectively). Cell-free culture supematants were harvested and analyzed for VEGF or sVEGFR-1 by ELISA (R&D Systems).\nHuman monocytes were left untreated or were stimulated with 100 ng/mL GM-CSF at normoxia or at 0.5% O2. At various time-points, cells were harvested in Trizol reagent (Invitrogen) and RNA was extracted in chloroform and then purified using the RNeasy Minikit (Qiagen). In murine studies, organs harvested at the time of euthanasia were flash-frozen in liquid nitrogen, pulverized in liquid nitrogen, and then dissolved in Trizol. cDNA was generated from 1 μg of RNA using the Superscript First Strand Synthesis System (Invitrogen) and used for real-time PCR using previously described primers and SYBR Green PCR Master Mix (Applied Biosciences), according to the manufacturer's instructions. Data were analyzed according to the comparative threshold method and normalized against the β-actin internal control transcript. Results are semi-quantitative and represent the fold difference in transcript levels in a particular sample as compared with levels in untreated cells from the same donor."}, "HIF-2α": {"tested_on": "HIF-2α", "test": "Immunoblot for HIF-2α in murine bone marrow-derived macrophages", "type": "cell-based", "conditions": "murine bone marrow-derived macrophages treated 18 hours; p=0.001; FIG. 11A", "method": "To generate bone marrow-derived macrophages (BDMs), femoral bone marrow was isolated and progenitor cells were plated in RPMI-1640 supplemented with 10% FBS, 1% PSA, 10 μg/mL of polymyxin B, and 20 ng/mL of recombinant murine M-CSF. Cells were cultured for 5 days with the addition of fresh M-CSF every other day. Differentiated BDM were serum-starved for 2 hours and then treated with 100 ng/mL of murine GM-CSF and/or 25 μM the disclosed HIF-2α stabilizer in RPMI-1640 containing 1% FBS and 10 μg/mL polymixin B. Culture supernatants were collected after 72 hours and assayed for VEGF and sVEGFR-1 content by ELISA (R&D Systems).\nIn order to confirm the selective upregulation of HIF-2α by the disclosed HIF-2α stabilizer, murine bone marrow-derived macrophages were treated with the disclosed HIF-2α stabilizer for 18 hours, and cells were then lysed and immunoblotted for HIF-1α and HIF-2α."}}}
{"smiles": "O=C(O)CNC(=O)c1ncc(-c2cccc(F)c2)cc1O", "note": "[disclosed HIF-2α stabilizer, {[5-(3-Fluorophenyl)-3-hydroxypyridine-2-carbonyl]amino} acetic acid]", "values": [{"measurement": "relative metastasis to the lung (Pmel17 mRNA expression)", "setting": "Pmel17 mRNA", "result": "reduced metastasis"}, {"measurement": "sVEGFR-1 production, protein level", "setting": "sVEGFR-1; p=0.007", "result": "increased significantly"}, {"measurement": "sVEGFR-1 production, transcript level", "setting": "sVEGFR-1; p=0.033", "result": "increased significantly"}, {"measurement": "HIF-2α protein", "setting": "HIF-2α", "result": "increase"}]}
